Measured values: PMC11793105, “A kalihinol analog disrupts apicoplast function and vesicular trafficking in P. falciparum malaria” (Science (New York, N.Y.), 2024)

Key:
[1] = test system: P. falciparum W2 (MRA-157, chloroquine resistant); assay: SYBR Green I growth inhibition assay, W2; type: cell-based, Plasmodium falciparum; conditions: early-ring stage, 72 h exposure
Protocol: (§1) Fig. 1. […] (B) SYBR Green–based dose response assays were conducted on early-ring stage parasites (6 hours after invasion). […] 3D7 WT (blue), NF54 (green), drug-resistant strains Dd2 (red), HB3 (black), W2 (gray), and D10-ACP-GFP (purple) lines (Sigmoidal, 4PL, X is concentration, n ≥ 3, nonlinear regression, CI: 95%). (C) Schematic diagram of the development of P. falciparum after two consecutive erythrocytic cycles. The time points at which MED6-189 was introduced are depicted in green. HPS, hours post synchronization. […] The images depict various developmental stages of the parasite’s intraerythrocytic life cycle. Bordered images represent time points when drug was first introduced (n = 3 biological replicates, P < 0.05).
Detailed information on materials and methods is available in the supplementary materials. […] P. knowlesi assays were quantitatively measured by flow cytometry using SYBR Green I and Mitrotracker Deep Red, as previously described ([84], [85]), on a Beckman Coulter CytoFLEX. […]
P. falciparum in vitro SYBR green fluorescence-based assays The anti-malarial activity of individual analogues were evaluated in-vitro against P. falciparum 3D7 (MRA-102, drug […]
green-I based fluorescence assay. Parasite growth rate and stages of development were determined via microscopy through Giemsa-stained smears of the cultures. […]

HEK293 = assay: Human cell line activity, HEK293; type: cell-based; conditions: HEK293, read-out: IC50 (µM) HEK293
erythrocytes = assay: Hemolytic activity assay (Giemsa smeared culture images); type: cell-based; conditions: concentrations up to 10 μM
Protocol: and two formamide derivatives.
2 and GB209-3 compounds tested after 48Hr and 72Hr drug incubation. […]

[2] = Tolerability study and toxicological profile; type: in vivo, Male CD1 mouse; conditions: for adverse effects (Functional Observational Battery): oral
Protocol: Tolerability studies used Male CD1 (20-22 g Envigo).
Blood samples for analysis were carried out in the Abacus5 junior Vet (Practice CVM S.L.L). Clinical chemistry was performed by mean analysis of whole blood in Vetscan (ABAXIS) and F560 (Menarini) analyzer and by mean analysis of plasma.
Tolerability study Male CD1 (20-22g Envigo) were used in tolerability studies.
All animal studies were ethically reviewed and carried out in accordance with European Directive
were housed in cages (Tecniplast®). The cages contained autoclaved dust free corncob bedding
(Rehofix MK2000, 1.7-2.2 mm particle size) and carry filters covers. Animal maintenance
standard g-irradiated standard rodent diet (Envigo Teklad 2914) and ultra-filtered water was
provided ad libitum. Environmental conditions: Photoperiods, simulated dawn/dusk facility, were
adjusted to 12h of light (300 lux) and 12h darkness daily. The temperature range was 22± 2 °C.
Relative humidity was 55% ± 10 and the air room was changed 15-20 times per hour.
Environmental enrichment included nesting material (nesting cups, LBS), a red-tinted igloo
(Datesand), a hanging clear tunnel (Datesand, and two wood blocks (Datensand).
Protocol design Male CD1 mouse (n=1) was dosed with an initial dose at 100 mg/kg (1-day, oral
route, once a day, 10ml/kg). The animals were observed during the first four hours after
administration and after 24h. The neurobehavioral assessment Functional Observational Battery
the modified symptom-based Up-&-Down method and adjusted a constant factor (1.6). Other male
Two mice were treated at 50
To confirm the data, 3 animals per dose
(100mg/kg and 63.4 mg/kg) and vehicle group with 1% Methylcellulose + 0.5% Tween (n=2) were
dosed. Systemic exposure levels at different times were taken (0.5h, 2h, 4h, 8, 24, 48h) of treated
animals (n=3 per group) and a toxicological profile was performed after 7 days of treatment
(hematology, clinical chemistry, and necropsy). Additionally in the same animals with the same
scheduling sampling, blood samples of 15 uL were taken from lateral tail vein and recovered in a
vial with the same quantity of water, mix and freeze until bioanalytical quantification for the
determination of blood level exposures and pharmacokinetic analysis.
Toxicological Profile The bodyweight of animals was recorded before dosage, 24 hours after and
every day in animals kept for 7 days. Any sign of toxicity was recorded for 4h and 24h hours after
drug administration (Functional Observational Battery). All animals were sacrificed by CO2
inhalation. Blood samples for analysis were then taken by intracardiac puncture and fractionated
to blood recount and serum analysis. The blood recount was carried out in the Abacus5 junior Vet
→ (Practice CVM S.L.L). Clinical chemistry was performed by mean analysis of whole blood in
Vetscan→ (ABAXIS) & F560 (Menarini→) analyzer and by mean analysis of plasma, obtained
after centrifugation at 1800g rpm for 10 min in S-Microvette tubes (Sarstedt→) with Heparin-
Lithium. The plasma parameters tested were: glucose, ALP, AST, ALT, GGT, LDH, AMY, CK
Calcium, Phosphate, Sodium, Potassium, total bilirrubin, total protein, albumin, blood ureic
nitrogen (BUN), creatinine, triglycerides, cholesterol. After necropsy, several organs (liver,
kidney, spleen, Caecum, and stomach) were removed and weighed. Liver, kidney, and spleen were
fixed in formalin (formaldehyde 10%) to further histopathology study (Hematoxilin/Eosin stain).

[3] = test system: P. falciparum metabolites; assay: LC-MS metabolomic profiling (lipids and polar metabolites); type: cell-based, Plasmodium falciparum; conditions: treated parasites, second IEC (72 hours after treatment)
[4] = test system: synchronized P. falciparum 3D7 parasites; assay: Parasitemia and asexual stage phenotype analyses; type: cell-based, Plasmodium falciparum; conditions: IC80, synchronized 3D7, second IEC
Protocol: as §1, with “0.05). […]” for “0.05).”
Data analysis The percentage of parasitized erythrocytes was determined by enumerating the number of Hoechst positive events out of the total erythrocytes after excluding non-single cells by forward and side scatter. The percent survival was calculated by averaging the parasitemia in the triplicates for each condition and then dividing by the parasitemia observed in the wells that did not receive drug treatment. The IC50 was then calculated using GraphPad Prism 9 (GraphPad […]
hrs. […] Parasitemia and proportion of the different asexual blood stages were determined by counting Giemsa-stained blood smears by light microscopy at every 12-hour time point. […]

In the case of [C-]#[N+][C@]1(C)CC[C@H]2[C@@H]([C@@H](C(C)C)CC[C@]2(C)[N+]#[C-])[C@H]1O [MED6-189], the IC50 ([1]; Plasmodium falciparum, W2, 72 h) is reported as 27 ± 5 nM, the IC50 [1] is reported as 26.7 nM and the IC50 (HEK293) is reported as 28 µM. The hemolytic activity (erythrocytes) was “no hemolytic activity”, the “adverse effects (Functional Observational Battery)” value (“adverse effects” below) ([2]; 50 mg/kg, two mice) was “didn´t show adverse effects” and the “adverse effects” value ([2]; 62.5mg/kg, one mouse) was “showed adverse effects”. The “adverse effects” value ([2]; 100 mg/kg, once, n=1) was “Adverse effects were found”, the adverse events ([2]; doses up to 50 mg/kg) was “did not exhibit any adverse events” and the “hematology, clinical chemistry, necropsy” value ([2]; doses up to 50 mg/kg) was “no significant changes”. For the same compound, the “increase in lysophosphatidylcholine (LPC) steady-state levels” value [3] was about 3.5 fold and the “effect on asexual intraerythrocytic development” value [4] was “unable to fully undergo schizogony or reinvasion”.
